Experimental data taken from the supplement of paper PMC10307832.

What was measured:
Assay in all cases: relative viability (nuclei count vs DMSO), 5 days (fraction); higher = more cells survive
Quizartinib + OSI-027 = compound: CC(C)(C)c1cc(NC(=O)Nc2ccc(-c3cn4c(n3)sc3cc(OCCN5CCOCC5)ccc34)cc2)no1 [Quizartinib] + COc1cccc2cc(-c3nc([C@H]4CC[C@H](C(=O)O)CC4)n4ncnc(N)c34)[nH]c12 [OSI-027] (partner 0.5 µM)
Outline: (§1)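 The day after seeding in 1536-well plates, lung cancer cell lines were treated by pin tool with a single drug, or with a fixed anchor-drug dose together with five library-drug doses (not always all listed) in √10 steps. After 5 days, a combined fix-and-stain solution (final 0.05% Triton X-100, 1% formaldehyde, 1 ug/ml Hoechst) was added. Nuclei counted on 4× images gave relative viability as treated counts over vehicle counts, reported as the median of duplicate plates.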

YM155 + Luminespib = compound: COCC[n+]1c2c(n(Cc3cnccn3)c1C)C(=O)c1ccccc1C2=O [YM155] + CCNC(=O)c1noc(-c2cc(C(C)C)c(O)cc2O)c1-c1ccc(CN2CCOCC2)cc1 [Luminespib] (partner 0.01 µM)
Outline: as §1

YM155 + Lapatinib = compound: COCC[n+]1c2c(n(Cc3cnccn3)c1C)C(=O)c1ccccc1C2=O [YM155] + CS(=O)(=O)CCNCc1ccc(-c2ccc3ncnc(Nc4ccc(OCc5cccc(F)c5)c(Cl)c4)c3c2)o1 [Lapatinib] (partner 2 µM)
Outline: as §1

YM155 + AZD7762 = compound: COCC[n+]1c2c(n(Cc3cnccn3)c1C)C(=O)c1ccccc1C2=O [YM155] + NC(=O)Nc1cc(-c2cccc(F)c2)sc1C(=O)N[C@H]1CCCNC1 [AZD7762] (partner 0.2 µM)
Outline: as §1

Cell Line	relative viability (Quizartinib + OSI-027; first compound 0.001 µM)	relative viability (Quizartinib + OSI-027; first compound 0.003162 µM)	relative viability (Quizartinib + OSI-027; first compound 0.01 µM)	relative viability (Quizartinib + OSI-027; first compound 0.1 µM)	relative viability (YM155 + Luminespib; first compound 0.002 µM)	relative viability (YM155 + Luminespib; first compound 0.006325 µM)	relative viability (YM155 + Luminespib; first compound 0.02 µM)	relative viability (YM155 + Luminespib; first compound 0.06325 µM)	relative viability (YM155 + Lapatinib; first compound 0.002 µM)	relative viability (YM155 + Lapatinib; first compound 0.006325 µM)	relative viability (YM155 + Lapatinib; first compound 0.02 µM)	relative viability (YM155 + Lapatinib; first compound 0.06325 µM)	relative viability (YM155 + AZD7762; first compound 0.002 µM)	relative viability (YM155 + AZD7762; first compound 0.006325 µM)	relative viability (YM155 + AZD7762; first compound 0.02 µM)	relative viability (YM155 + AZD7762; first compound 0.06325 µM)	relative viability (Quizartinib + OSI-027; first compound 0.03162 µM)
LC-2-ad	0.842	0.866	0.757	0.626	0.942	0.959	0.869	0.331	0.997	0.92	0.946	0.907	0.8	0.842	0.854	0.841	–
LCLC-97TM1	0.567	0.466	0.538	0.563	0.838	0.816	0.717	0.71	1.04	1.03	1	0.551	0.158	0.251	0.231	0.096	0.588
LK-2	0.182	0.199	0.185	0.182	0.249	0.165	0.21	0.185	0.893	0.966	0.94	0.885	0.445	0.305	0.494	0.438	0.198
LOU-NH91	0.673	0.749	0.712	0.767	0.299	0.36	0.315	0.375	0.828	0.778	0.778	0.788	0.766	0.756	0.769	0.8	0.742
LU99A	0.282	0.3	0.282	0.327	0.233	0.263	0.275	0.219	0.965	0.884	0.809	0.589	0.553	0.27	0.412	0.28	0.319
LXF-289	0.743	0.791	0.797	0.877	0.651	0.683	0.675	0.504	0.891	0.892	0.905	0.713	1.1	1.07	1.07	0.937	0.89
NCI-H23	–	0.561	0.465	0.401	0.209	0.206	0.187	0.142	0.877	1.09	0.736	0.313	–	0.292	0.308	0.239	0.507
NCI-H322M	0.54	0.568	0.556	0.57	0.814	0.949	0.944	0.759	0.601	0.628	0.509	0.585	0.53	0.579	0.593	0.572	0.517
NCI-H358	0.706	0.676	0.768	0.72	0.222	0.374	0.352	0.311	0.326	0.447	0.344	0.199	–	0.523	0.437	0.281	0.287
NCI-H460	0.585	0.593	0.692	0.533	0.0266	0.0307	0.035	0.0204	0.906	1.1	1.05	0.452	0.596	0.628	0.777	0.459	0.341
NCI-H596	0.665	0.745	0.652	0.547	1.06	1.02	0.924	1.27	–	1.11	1.09	1.06	0.989	0.98	1.28	1.11	0.663
NCI-H647	0.627	0.654	0.689	0.648	0.151	0.148	0.162	0.106	1.13	1.08	0.799	0.405	0.429	0.509	0.407	0.0872	0.596
NCI-H650	0.527	0.505	0.428	0.61	0.768	0.803	0.75	0.89	0.84	0.929	0.785	0.707	0.835	0.958	1.08	0.776	0.548
NCI-H727	0.412	0.624	0.539	0.699	0.588	0.336	0.307	0.665	0.614	0.704	1.01	0.953	0.768	0.676	0.684	0.703	0.869
NCI-H838	0.346	0.4	0.299	0.375	0.254	0.429	0.234	0.158	0.92	1.01	1.03	0.353	0.936	0.904	0.932	0.726	0.38
NCI-H1355	0.361	0.449	0.389	0.4	0.633	0.724	0.733	0.683	0.934	1.04	0.996	1.02	0.74	0.749	0.781	0.798	0.377
NCI-H1395	0.697	0.749	0.645	0.691	0.934	0.81	0.798	0.971	1.06	1.05	1.25	1.13	0.351	0.41	0.4	0.434	0.586
NCI-H1437	0.789	0.868	0.853	0.747	1.1	1.1	0.976	0.76	0.72	0.784	0.767	0.708	1.11	1.08	1.1	0.926	0.956
NCI-H1651	0.672	0.584	0.637	0.742	0.869	0.836	0.789	0.604	0.869	0.861	0.726	0.601	0.44	0.433	0.533	0.487	0.632

Cell Line	relative viability (Quizartinib + OSI-027; first compound 0.001 µM)	relative viability (Quizartinib + OSI-027; first compound 0.003162 µM)	relative viability (Quizartinib + OSI-027; first compound 0.01 µM)	relative viability (Quizartinib + OSI-027; first compound 0.1 µM)	relative viability (YM155 + Luminespib; first compound 0.002 µM)	relative viability (YM155 + Luminespib; first compound 0.006325 µM)	relative viability (YM155 + Luminespib; first compound 0.02 µM)	relative viability (YM155 + Luminespib; first compound 0.06325 µM)	relative viability (YM155 + Lapatinib; first compound 0.002 µM)	relative viability (YM155 + Lapatinib; first compound 0.006325 µM)	relative viability (YM155 + Lapatinib; first compound 0.02 µM)	relative viability (YM155 + Lapatinib; first compound 0.06325 µM)	relative viability (YM155 + AZD7762; first compound 0.002 µM)	relative viability (YM155 + AZD7762; first compound 0.006325 µM)	relative viability (YM155 + AZD7762; first compound 0.02 µM)	relative viability (YM155 + AZD7762; first compound 0.06325 µM)	relative viability (Quizartinib + OSI-027; first compound 0.03162 µM)
NCI-H1666	0.755	0.883	0.856	0.857	1.01	1.07	1.02	0.852	0.629	–	0.77	0.562	0.821	0.824	0.907	0.847	0.764
NCI-H1734	0.522	0.543	0.636	0.611	0.242	0.202	0.23	0.174	1.09	1.08	1.13	0.969	0.489	0.582	0.614	0.539	0.555
NCI-H1755	0.591	0.645	0.79	0.701	0.519	0.445	0.473	0.583	1.04	1.03	1.01	1.04	0.478	0.445	0.427	0.493	0.793
NCI-H1792	–	0.73	0.707	0.733	0.441	0.47	0.475	0.403	0.95	0.92	0.943	0.895	0.613	0.574	0.648	0.604	0.589
NCI-H1793	0.27	0.298	0.232	0.232	0.234	0.24	0.333	0.189	–	0.584	0.606	0.479	0.329	0.619	0.532	0.46	0.309
NCI-H1915	0.602	0.642	0.562	0.606	0.803	0.809	0.829	0.711	0.968	0.946	0.918	0.784	0.728	0.659	0.662	0.553	0.683
NCI-H1944	0.407	0.476	0.327	0.387	0.688	0.637	0.81	1.16	0.842	0.724	0.767	0.82	0.619	0.414	0.531	0.58	0.395
NCI-H1975	0.682	0.624	0.722	0.572	0.283	0.253	0.209	0.156	0.701	0.774	0.856	0.175	0.726	0.734	0.701	0.439	0.673
NCI-H1993	0.487	0.46	0.672	0.544	0.722	0.695	0.444	0.529	0.81	0.736	0.682	0.757	0.687	0.775	0.475	0.537	0.621
NCI-H2085	0.784	0.648	0.662	0.525	0.406	0.474	0.338	0.369	0.746	0.752	0.614	0.315	0.928	0.975	0.979	0.801	0.778
NCI-H2087	–	0.583	0.486	0.496	0.194	0.17	0.148	0.149	1.26	1.01	1.12	0.708	1.18	1.29	1.26	1.04	0.514
NCI-H2126	0.66	0.753	0.671	0.693	0.804	0.969	0.94	0.927	0.768	0.788	0.726	0.783	0.995	1.04	1.08	1.05	0.621
NCI-H2170	0.695	0.659	0.825	0.816	0.525	0.751	0.647	0.596	0.261	0.261	0.291	0.235	0.873	0.817	0.839	0.734	0.774
NCI-H2347	0.234	0.434	0.365	0.516	0.409	0.41	0.647	0.368	0.917	0.914	0.997	0.598	0.659	0.748	0.807	0.732	0.377
NCI-H2405	0.653	0.702	0.736	0.626	0.65	0.778	0.639	0.393	1.03	0.816	0.786	0.34	0.609	0.656	0.578	0.39	0.644
NCI-H3122	–	0.947	1.08	0.877	0.0874	0.123	0.0877	0.0824	1	0.997	1.01	1.08	1.02	1.03	0.974	0.971	–
PC-3 [JPC-3]	0.692	0.747	0.782	0.698	0.654	0.732	0.673	0.653	0.455	0.455	0.437	0.455	0.742	0.872	0.927	0.697	0.757
PC-14	0.737	0.754	1	0.882	0.171	0.174	0.111	0.143	0.306	0.295	0.297	0.355	0.233	0.343	0.371	0.363	–
RERF-LC-KJ	0.536	0.534	0.592	0.521	1.14	1	1.18	1.15	0.755	0.853	0.88	0.821	1.04	1.19	1.06	1.03	0.341
